Experimental data reported in US9057093B2 (priority 2010, dated 2015).
Read-outs that look alike come from different tables or passages of the source.

Test system: Legionella pneumophila strains
Format: cell-based
Conditions: for optimal dose: dose giving best improvement in latency and/or growth rate
[1] = doses of between 10^−6 to 10^−2 mM, especially 10^−4 mM, numerous strains
[2] = supplemented medium vs reference medium (YEC), doses between 0.01 and 5% weight of compound on volume of sample, variety of strains

Compound	latency and/or growth rate [1]	latency and/or growth rate (doses of between 1 to 10^−4 mM, especially around 10^−2 mM, a number of strains)	optimal dose	latency and/or growth rate [2]
[Ca+2].[Cl-].[Cl-] [calcium chloride]	Improvements in latency and/or growth rate			
[Cl-].[Cl-].[Mg+2] [magnesium chloride]	Improvements in latency and/or growth rate			
[Cl-].[K+] [potassium chloride]		Improvements in latency and/or growth rate		
N[C@@H](CO)C(=O)O [serine]			around 1 g per litre	improvements in latency and/or growth rate
C[C@@H](O)[C@H](N)C(=O)O [threonine]			around 1 g per litre	improvements in latency and/or growth rate
